Conditions: Liquid, Vibrating tube method

Cc1cccc(O)c1 [3-methylphenol]
Conditions | mass density [kg/m3]
313.22 K, 1001 kPa | 1019.1
313.22 K, 2012 kPa | 1019.8
313.22 K, 3024 kPa | 1020.3
313.22 K, 4007 kPa | 1020.9
313.22 K, 4992 kPa | 1021.4
313.22 K, 6027 kPa | 1022
313.22 K, 7013 kPa | 1022.6
313.22 K, 8000 kPa | 1023.1
313.22 K, 9008 kPa | 1023.7
313.22 K, 10014 kPa | 1024.3
313.22 K, 11015 kPa | 1024.8
313.22 K, 12040 kPa | 1025.4
313.22 K, 13022 kPa | 1026
313.22 K, 14023 kPa | 1026.4
313.22 K, 15002 kPa | 1026.9
313.22 K, 16009 kPa | 1027.5
313.22 K, 17020 kPa | 1028
313.22 K, 18021 kPa | 1028.5
313.22 K, 19016 kPa | 1029
313.22 K, 20026 kPa | 1029.6
313.22 K, 21024 kPa | 1030.1
313.22 K, 22026 kPa | 1030.7
313.22 K, 23030 kPa | 1031.1
313.22 K, 24017 kPa | 1031.6
313.22 K, 25019 kPa | 1032.2
322.9 K, 1014 kPa | 1011.2
322.9 K, 2041 kPa | 1011.8
322.9 K, 3002 kPa | 1012.4
322.9 K, 4014 kPa | 1013
322.9 K, 5012 kPa | 1013.6
322.9 K, 6022 kPa | 1014.2
322.9 K, 7020 kPa | 1014.7
322.9 K, 8018 kPa | 1015.3
322.9 K, 9020 kPa | 1015.9
322.9 K, 10005 kPa | 1016.4
322.9 K, 11018 kPa | 1017
322.9 K, 12019 kPa | 1017.6
322.9 K, 13017 kPa | 1018.2
322.9 K, 14010 kPa | 1018.7
322.9 K, 15022 kPa | 1019.3
322.9 K, 16000 kPa | 1019.8
322.9 K, 17011 kPa | 1020.4
322.9 K, 18018 kPa | 1020.9
322.9 K, 19018 kPa | 1021.4
322.9 K, 20009 kPa | 1022
322.9 K, 21019 kPa | 1022.6
322.9 K, 22019 kPa | 1023.1
322.9 K, 23006 kPa | 1023.6
322.9 K, 24012 kPa | 1024.1
322.9 K, 25019 kPa | 1024.7
332.61 K, 1018 kPa | 1003.3
332.61 K, 2014 kPa | 1004
332.61 K, 3003 kPa | 1004.5
332.61 K, 4030 kPa | 1005.2
332.61 K, 5000 kPa | 1005.8
332.61 K, 6022 kPa | 1006.4
332.61 K, 7020 kPa | 1006.9
332.61 K, 8020 kPa | 1007.5
332.61 K, 9003 kPa | 1008.1
332.61 K, 10014 kPa | 1008.7
332.61 K, 11012 kPa | 1009.3
332.61 K, 12000 kPa | 1009.9
332.61 K, 13000 kPa | 1010.4
332.61 K, 14028 kPa | 1011
332.61 K, 15028 kPa | 1011.6
332.61 K, 16023 kPa | 1012.2
332.61 K, 17000 kPa | 1012.7
332.61 K, 18008 kPa | 1013.3
332.61 K, 19000 kPa | 1013.9
332.61 K, 20001 kPa | 1014.4
332.61 K, 21013 kPa | 1014.9
332.61 K, 22010 kPa | 1015.5
332.61 K, 23007 kPa | 1016
332.61 K, 24000 kPa | 1016.6
332.61 K, 25008 kPa | 1017.1
342.27 K, 2018 kPa | 995.8
342.27 K, 2999 kPa | 996.4
342.27 K, 3998 kPa | 997
342.27 K, 4976 kPa | 997.6
342.27 K, 5984 kPa | 998.3
342.27 K, 7059 kPa | 998.9
342.27 K, 8070 kPa | 999.7
342.27 K, 8967 kPa | 1000.2
342.27 K, 9994 kPa | 1000.8
342.27 K, 10921 kPa | 1001.4
342.27 K, 11964 kPa | 1002.1
342.27 K, 12971 kPa | 1002.6
342.27 K, 13954 kPa | 1003.2
342.27 K, 14960 kPa | 1004
342.27 K, 15941 kPa | 1004.3
342.27 K, 16963 kPa | 1005.1
342.27 K, 17992 kPa | 1005.8
342.27 K, 18963 kPa | 1006.2
342.27 K, 19996 kPa | 1006.7
342.27 K, 21003 kPa | 1007.5
342.27 K, 21974 kPa | 1008
342.27 K, 22968 kPa | 1008.7
342.27 K, 24051 kPa | 1009.2
342.27 K, 24971 kPa | 1009.7
352.06 K, 1951 kPa | 988.5
352.06 K, 2979 kPa | 989.1
352.06 K, 4034 kPa | 989.8
352.06 K, 4966 kPa | 990.3
352.06 K, 5929 kPa | 990.9
352.06 K, 7014 kPa | 991.6
352.06 K, 8011 kPa | 992.2
352.06 K, 8921 kPa | 992.8
352.06 K, 9982 kPa | 993.4
352.06 K, 10938 kPa | 994
352.06 K, 11975 kPa | 994.6
352.06 K, 12999 kPa | 995.3
352.06 K, 13907 kPa | 995.8
352.06 K, 14981 kPa | 996.5
352.06 K, 15966 kPa | 997.1
352.06 K, 16996 kPa | 997.7
352.06 K, 17984 kPa | 998.3
352.06 K, 18991 kPa | 998.9
352.06 K, 20005 kPa | 999.5
352.06 K, 21038 kPa | 1000.1
352.06 K, 22019 kPa | 1000.6
352.06 K, 23001 kPa | 1001.2
352.06 K, 24029 kPa | 1001.8
352.06 K, 24969 kPa | 1002.3
361.9 K, 1990 kPa | 980.5
361.9 K, 3001 kPa | 981.2
361.9 K, 4024 kPa | 981.8
361.9 K, 5019 kPa | 982.5
361.9 K, 6014 kPa | 983.1
361.9 K, 7025 kPa | 983.7
361.9 K, 8019 kPa | 984.4
361.9 K, 9010 kPa | 985
361.9 K, 9978 kPa | 985.6
361.9 K, 11019 kPa | 986.3
361.9 K, 12038 kPa | 986.9
361.9 K, 13020 kPa | 987.6
361.9 K, 14021 kPa | 988.2
361.9 K, 15006 kPa | 988.8
361.9 K, 15970 kPa | 989.4
361.9 K, 16988 kPa | 990.1
361.9 K, 17991 kPa | 990.7
361.9 K, 19016 kPa | 991.4
361.9 K, 20042 kPa | 992
361.9 K, 20983 kPa | 992.6
361.9 K, 22034 kPa | 993.3
361.9 K, 23021 kPa | 993.9
361.9 K, 24011 kPa | 994.6
361.9 K, 24912 kPa | 995.1
